Results taken from US20260240878A1, “PTP1B/TC-PTP DUAL INHIBITORS AND PROTEIN DEGRADERS” (Purdue Research Foundation, priority 2023, published 2026).
*1 amine or outer side, *2 acyl side, *3 side chain or, on linkers, in order; H or OH if unused. Where a SMILES comes first, the peptide text is derived from it. [ ]: non-standard residue; d: D form. The star is where a group is joined. NHBn(4-(4-Me-thiazol-5-yl)) = Cc1ncsc1-c1ccc(CN*)cc1; F2Pmp = N[C@@H](Cc1ccc(C(F)(F)P(=O)(O)O)cc1)C(=O)O; Phenylacetyl(4-OH,3-OMe) = COc1cc(CC(=O)*)ccc1O; Benzoyl(3-Br,4-Me) = Cc1ccc(C(=O)*)cc1Br; NH(CH2)9CO = O=C(CCCCCCCCCN[*:1])[*:2]; Hyp = O=C(O)[C@@H]1C[C@@H](O)CN1; dHyp = O=C(O)[C@H]1C[C@H](O)CN1; dTle = CC(C)(C)[C@@H](N)C(=O)O; Tle = CC(C)(C)[C@H](N)C(=O)O; 12Ado = NCCCCCCCCCCCC(=O)O; Ahp = NCCCCCCC(=O)O; Ava = NCCCCC(=O)O

Key:
PTP1B [1] = target: T1, PTP1B (Homo sapiens, UniProt P18031); experiment: Degradation assay in HEK293 cells (immunoblotting); assay type: cell-based; set-up: Degradation assay was conducted in HEK293 cells with 1 μM degrader and 24 hours incubation; endogenous in cells; host or cells: HEK293; settings: 1 μM degrader, 24 hours
T1 sequence (P18031 1-435): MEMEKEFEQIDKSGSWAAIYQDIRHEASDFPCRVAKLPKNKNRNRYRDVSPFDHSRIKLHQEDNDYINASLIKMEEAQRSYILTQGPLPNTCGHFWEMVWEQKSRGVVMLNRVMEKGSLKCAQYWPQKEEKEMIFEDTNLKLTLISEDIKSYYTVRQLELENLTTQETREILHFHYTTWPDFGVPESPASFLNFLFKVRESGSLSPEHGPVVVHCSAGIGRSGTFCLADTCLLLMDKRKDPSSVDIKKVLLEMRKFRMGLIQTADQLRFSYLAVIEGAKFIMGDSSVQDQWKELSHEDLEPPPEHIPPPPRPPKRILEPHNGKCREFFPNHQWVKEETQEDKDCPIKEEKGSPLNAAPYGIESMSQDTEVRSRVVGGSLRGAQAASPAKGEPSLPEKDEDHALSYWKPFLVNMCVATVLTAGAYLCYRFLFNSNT
Experimental: (§1) HEK293. MIAPaCa-2, HepG2, U2OS, H116, MEF, B16F10, and MC38 cells, were grown in DMEM, while Jurkat and H358 cells were grown in RPMI 1640 supplemented with 10% fetal bovine serum, penicillin (50 units/mL), and streptomycin (50 μg/mL) in a 37° C. incubator containing 5% CO2. 20 ng/ml human (Biolegend #713906) or mouse (Biolegend #714006) Interferon-γ were used for JAK/STAT pathway stimulation.
(§2) Tissues or cultured cells were lysed with ice-cold lysis buffer (50 mM Tris (pH 8.0, 150 mM NaCl, 10% Glycerol, 1% Triton-X-100) supplied with phosphatase inhibitor (Bimake) and protease inhibitor mixture (Roche Applied Science). Equal amounts of protein were resolved by SDS-PAGE, transferred to nitrocellulose membrane, and subjected to immunoblotting. Antibodies used in this study include anti-following proteins: pSTAT1^Tyr701 (Cell Signaling Technology #9167, 1:3000), GAPDH (Cell Signaling Technology #97166, 1:5000), pJAK1^Tyr1034/1035 (Cell Signaling Technology #74129, 1:1000), pJAK2^Tyr1007/1008 (Cell Signaling Technology #3776, 1:1000), TC-PTP (Abcam #ab180764, 1:3000). PTP1B (Abcam #ab244207, 1:1500).
(§3) Degradation assay was conducted in HEK293 cells with 1 μM degrader and 24 hours incubation.
(§4) The degradation assay was conducted in HEK293 cells with 0.2 μM degrader and 16 hours incubation.

TC-PTP [2] = target: T2, TC-PTP (Homo sapiens, UniProt P17706); experiment: Degradation assay in HEK293 cells (immunoblotting); assay type: cell-based; set-up: Degradation assay was conducted in HEK293 cells with 1 μM degrader and 24 hours incubation; endogenous in cells; host or cells: HEK293; settings: 1 μM degrader, 24 hours, read-out: % Protein Degradation TC-PTP
T2 sequence (P17706 1-415): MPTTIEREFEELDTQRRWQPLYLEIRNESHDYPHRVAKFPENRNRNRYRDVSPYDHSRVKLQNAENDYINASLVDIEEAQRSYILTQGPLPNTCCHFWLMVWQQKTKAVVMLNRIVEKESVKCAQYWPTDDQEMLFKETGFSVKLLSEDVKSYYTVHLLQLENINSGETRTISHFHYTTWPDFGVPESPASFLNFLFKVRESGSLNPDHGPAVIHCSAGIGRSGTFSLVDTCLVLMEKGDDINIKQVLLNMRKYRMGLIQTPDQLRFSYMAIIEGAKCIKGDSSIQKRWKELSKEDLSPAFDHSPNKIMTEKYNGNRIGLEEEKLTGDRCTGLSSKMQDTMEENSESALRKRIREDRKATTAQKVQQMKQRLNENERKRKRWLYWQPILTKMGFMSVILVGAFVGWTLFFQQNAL
Experimental: as §1, §2, §3, §4

PTP1B [3] = target: T1, PTP1B; experiment: PTP activity assay with pNPP substrate (IC50, Ki, mode of inhibition); assay type: biochemical; settings: for IC50: pNPP 2 mM, pH 7.0, 25° C., read-out: IC50, nM PTP1B
Experimental: (§5) PTP activity was assayed using p-nitrophenyl phosphate (pNPP) as a substrate in DMG buffer (50 mM DMG. pH 7.0, 1 mM EDTA, 150 mM NaCl, 2 mM DTT, 0.1 mg/mL BSA) at 25° C. The assays were performed in 96-well plates. Normally, to determine the IC50 values, the reaction was initiated by the addition of enzyme (for PTP1B and TCPTP, the final concentration was 0.4 nM, for other PTPs, the final concentration was 10 nM) to a reaction mixture (0.2 mL) containing 2 mM (Km for the substrate) pNPP with various concentrations of inhibitors (see FIG. 1). The reaction rate was measured using a SpectraMax Plus 384 Microplate Spectrophotometer (Molecular Devices). Data were fitted using SigmaPlot Enzyme Kinetics Module (Systat Software, Inc.). To determine the mode of inhibition, the reactions were initiated by the addition of enzyme (final concentration for TC-PTP and PTP1B was 0.4 nM) to the reaction mixtures (0.2 mL) containing various concentrations of pNPP with different concentrations of the inhibitor. Data were fitted using SigmaPlot Enzyme Kinetics Module (Systat Software. Inc.).

TC-PTP [4] = target: T2, TC-PTP; experiment: as above; assay type: biochemical; settings: for IC50: pNPP 2 mM, pH 7.0, 25° C., read-out: IC50, nM TC-PTP
Experimental: as §5

TC-PTP [5] = target: T2, TC-PTP; experiment: Degradation assay in HEK293 cells (immunoblotting); assay type: cell-based; set-up: endogenous in cells; host or cells: HEK293; settings: 0.2 μM degrader, 16 hours, read-out: % Protein Degradation TC-PTP
Experimental: as §1, §2, §3, §4

Structure (SMILES)	% Protein Degradation PTP1B (PTP1B [1]) [%]	percent TC-PTP degradation at 1 µM (TC-PTP [2]) [%]	IC50 (PTP1B [3]) [nM]	IC50 (TC-PTP [4]) [nM]	Ki (PTP1B [3]; PTP1B-catalyzed pNPP hydrolysis) [nM]	Ki (TC-PTP [4]; TC-PTP catalyzed pNPP hydrolysis) [nM]	percent TC-PTP degradation at 0.2 µM (TC-PTP [5]) [%]
COc1cc(CC(=O)N[C@@H](Cc2ccccc2)C(=O)N[C@@H](Cc2ccc(C(F)(F)P(=O)(O)O)cc2)C(=O)N[C@@H](CCCCNC(=O)c2ccc(C)c(Br)c2)C(=O)NCCCCC(=O)N[C@@H](C(=O)N2C[C@@H](O)C[C@@H]2C(=O)NCc2ccc(-c3scnc3C)cc2)C(C)(C)C)ccc1O [Compound 6, ((4-((S)-3-(((S)-6-(3-bromo-4-methylbenzamido)-1-((5-(((R)-1-((2R,4S)-4-hydroxy-2-((4-(4-methylthiazol-5-yl)benzyl)carbamoyl)pyrrolidin-1-yl)-3,3-dimethyl-1-oxobutan-2-yl)amino)-5-oxopentyl)amino)-1-oxohexan-2-yl)amino)-2-((S)-2-(2-(4-hydroxy-3-methoxyphenyl)acetamido)-3-phenylpropanamido)-3-oxopropyl)phenyl)difluoromethyl)phosphonic Acid] ({Phenylacetyl(4-OH,3-OMe)}-F[F2Pmp]K(Benzoyl(3-Br,4-Me))[Ava][dTle][dHyp]-{NHBn(4-(4-Me-thiazol-5-yl))})	53	58	29.4 ± 2.1	34.3 ± 14.8	–	–	–
COc1cc(CC(=O)N[C@@H](Cc2ccccc2)C(=O)N[C@@H](Cc2ccc(C(F)(F)P(=O)(O)O)cc2)C(=O)N[C@@H](CCCCNC(=O)c2ccc(C)c(Br)c2)C(=O)NCCCCCCC(=O)N[C@@H](C(=O)N2C[C@@H](O)C[C@@H]2C(=O)NCc2ccc(-c3scnc3C)cc2)C(C)(C)C)ccc1O [Compound 10, ((4-((S)-3-(((S)-6-(3-bromo-4-methylbenzamido)-1-((7-(((R)-1-((2R,4S)-4-hydroxy-2-((4-(4-methylthiazol-5-yl)benzyl)carbamoyl)pyrrolidin-1-yl)-3,3-dimethyl-1-oxobutan-2-yl)amino)-7-oxoheptyl)amino)-1-oxohexan-2-yl)amino)-2-((S)-2-(2-(4-hydroxy-3-methoxyphenyl)acetamido)-3-phenylpropanamido)-3-oxopropyl)phenyl)difluoromethyl)phosphonic Acid] ({Phenylacetyl(4-OH,3-OMe)}-F[F2Pmp]K(Benzoyl(3-Br,4-Me))[Ahp][dTle][dHyp]-{NHBn(4-(4-Me-thiazol-5-yl))})	61	69	7.4 ± 0.6	6.8 ± 0.6	–	–	–
COc1cc(CC(=O)N[C@@H](Cc2ccccc2)C(=O)N[C@@H](Cc2ccc(C(F)(F)P(=O)(O)O)cc2)C(=O)N[C@@H](CCCCNC(=O)c2ccc(C)c(Br)c2)C(=O)NCCCCCCCCCC(=O)N[C@H](C(=O)N2C[C@H](O)C[C@H]2C(=O)NCc2ccc(-c3scnc3C)cc2)C(C)(C)C)ccc1O [Compound 14, ((4-((S)-3-(((S)-6-(3-bromo-4-methylbenzamido)-1-((10-(((S)-1-((2S,4R)-4-hydroxy-2-((4-(4-methylthiazol-5-yl)benzyl)carbamoyl)pyrrolidin-1-yl)-3,3-dimethyl-1-oxobutan-2-yl)amino)-10-oxodecyl)amino)-1-oxohexan-2-yl)amino)-2-((S)-2-(2-(4-hydroxy-3-methoxyphenyl)acetamido)-3-phenylpropanamido)-3-oxopropyl)phenyl)difluoromethyl)phosphonic Acid] ({Phenylacetyl(4-OH,3-OMe)}-F[F2Pmp]K(Benzoyl(3-Br,4-Me))[NH(CH2)9CO][Tle][Hyp]-{NHBn(4-(4-Me-thiazol-5-yl))})	38	62	10.3 ± 0.6	6.8 ± 0.3	–	–	–
COc1cc(CC(=O)N[C@@H](Cc2ccccc2)C(=O)N[C@@H](Cc2ccc(C(F)(F)P(=O)(O)O)cc2)C(=O)N[C@@H](CCCCNC(=O)c2ccc(C)c(Br)c2)C(=O)NCCCCCCCCCCCC(=O)N[C@H](C(=O)N2C[C@H](O)C[C@H]2C(=O)NCc2ccc(-c3scnc3C)cc2)C(C)(C)C)ccc1O [Compound 18, ((4-((S)-3-(((S)-6-(3-bromo-4-methylbenzamido)-1-((12-(((S)-1-((2S,4R)-4-hydroxy-2-((4-(4-methylthiazol-5-yl)benzyl)carbamoyl)pyrrolidin-1-yl)-3,3-dimethyl-1-oxobutan-2-yl)amino)-12-oxododecyl)amino)-1-oxohexan-2-yl)amino)-2-((S)-2-(2-(4-hydroxy-3-methoxyphenyl)acetamido)-3-phenylpropanamido)-3-oxopropyl)phenyl)difluoromethyl)phosphonic Acid] ({Phenylacetyl(4-OH,3-OMe)}-F[F2Pmp]K(Benzoyl(3-Br,4-Me))[12Ado][Tle][Hyp]-{NHBn(4-(4-Me-thiazol-5-yl))})	29	30	22.3 ± 1.1	8.9 ± 0.6	–	–	–
COc1cc(CC(=O)N[C@@H](Cc2ccccc2)C(=O)N[C@@H](Cc2ccc(C(F)(F)P(=O)(O)O)cc2)C(=O)N[C@@H](CCCCNC(=O)c2ccc(C)c(Br)c2)C(N)=O)ccc1O [Example 7, ((4-((S)-3-(((S)-1-amino-6-(3-bromo-4-methylbenzamido)-1-oxohexan-2-yl)amino)-2-((S)-2-(2-(4-hydroxy-3-methoxyphenyl)acetamido)-3-phenylpropanamido)-3-oxopropyl)phenyl)difluoromethyl)phosphonic Acid]	–	0	4.7 ± 0.3	7.1 ± 0.4	2.4	3.6	0
